Measured values: ChEMBL document CHEMBL1142910, “Enzymatic and cellular study of a serotonin N-acetyltransferase phosphopantetheine-based prodrug” (2007)

What was measured:
[1] = Inhibition of norepinephrine-stimulated melatonin production assessed per 10^5 cells in rat pinealocytes at 10 uM by radioimmunoassay; format: functional
[2] = Inhibition of norepinephrine-stimulated melatonin production assessed per 10^5 cells in rat pinealocytes at 50 uM by radioimmunoassay; format: functional
[3] = biological target: Serotonin N-acetyltransferase (Rattus norvegicus) (UniProt Q64666); test: Inhibition of norepinephrine-stimulated AANAT activity assessed per 10^5 cells in rat pinealocytes at 10 uM; format: cell-based
[4] = biological target: Serotonin N-acetyltransferase (Rattus norvegicus) (UniProt Q64666); test: Inhibition of norepinephrine-stimulated AANAT activity assessed per 10^5 cells in rat pinealocytes at 50 uM; format: cell-based
[5] = biological target: Serotonin N-acetyltransferase (Rattus norvegicus) (UniProt Q64666); test: Activity of AANAT assessed as conversion of bis-pivaloyloxymethylene-tryptamine-phosphopantetheine to tryptamine phosphopantetheine in rat pinealocytes after 60 mins; format: cell-based
[6] = biological target: Serotonin N-acetyltransferase (Rattus norvegicus) (UniProt Q64666); test: Activity of AANAT assessed as conversion of bis-pivaloyloxymethylene-tryptamine-phosphopantetheine to tryptamine phosphopantetheine in rat pinealocytes at […]; format: cell-based; conditions: TDE = time-dependent effect

Serotonin N-acetyltransferase (Rattus norvegicus), sequence (Q64666 whole entry): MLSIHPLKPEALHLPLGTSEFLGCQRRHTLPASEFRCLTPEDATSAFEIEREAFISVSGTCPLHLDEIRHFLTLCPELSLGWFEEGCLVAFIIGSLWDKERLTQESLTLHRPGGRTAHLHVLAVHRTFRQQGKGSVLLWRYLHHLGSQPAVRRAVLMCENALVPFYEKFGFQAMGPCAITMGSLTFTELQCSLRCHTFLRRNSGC

- Activity [3]: 2.2 nmol/h
- Activity [4]: 1.6 nmol/h
- Activity [5]: 40%
- Activity [6]: tde
SMILES: CC(C)(C)C(=O)OCOP(=O)(OCOC(=O)C(C)(C)C)OCC(C)(C)[C@@H](O)C(=O)NCCC(=O)NCCSCC(=O)NCCc1c[nH]c2ccccc12
- Inhibition [1]: 9 pmol
- Inhibition [2]: 5.7 pmol
